The values that follow come from publication PMC7893792 (ACS Omega, 2021).

For series [1] the following is noted: cited from earlier work.
Substrate in series [2]: O=C(O)c1ccc(C(=O)O)c(-c2c3ccc(=O)cc-3oc3cc(O)ccc23)c1
Put plainly: 6-CF uptake by rOat3-expressing HEK293 cells. The class given is cell-based, rat. The following applies: other: HEK293-rOat3, 2 min, 37 °C, pH 7.4, 1-100 μM 6-CF.

For the molecule carboxyfluorescein, the “Binding to serum protein” value in series [1] is listed as around 90%.

B1: rOat3 (Rattus norvegicus) (protein)
chain: MTFSEILDRVGSMGPFQYLHVTLLALPVLGIANHNLLQIFTATTPVHHCRPPPNASIGPWVLPLDPNGKPEKCLRFVHLPNASLPNDTQRATEPCLDGWIYNSTRDTIVIEWDLVCSSNKLKEMAQSIFMAGILVGGPVIGELSDRFGRKPILTWSYLMLAASGSGAAFSPSLPVYMIFRFLCGCSISGISLSTVILNVEWVPTSMRAISSTSIGYCYTIGQFILSGLAYAIPQWRWLQLTSSAPFFIFSLLSWWVPESIRWLVLSGKYSKALKTLQRVATFNGKKEEGKKLTIEELKFNLQKDITSAKVKYGLSDLFRVSILRRVTFCLSLAWFSTGFAYYSLAMGVEEFGVNIYILQIIFGGVDIPAKFITILSLSYLGRRITQSFLLLLAGGAILALIFVPSEMQLLRTALAVFGKGCLSGSFSCLFLYTSELYPTVLRQTGMGISNVWARVGSMIAPLVKITGELQPFIPNVIFGTTALLGGSAAFFLLETLNRPLPETIEDIQNWHKQVQKTKQESEAEKASQIIPLKTGG
In the case of B1, the Km in series [2] was determined as 2.52 ± 0.48 µM.
